What was measured:
[1] = biological target: T1, glucocorticoid receptor (GR) (Mus musculus, UniProt P06537); test: In vivo transcriptional analysis (q-RT-PCR) of the three GR functions in mouse ears; design: species or system Balb/C mice; details: topical 18 hours, 1 nmole/cm^2
T1 construct: RNA transcripts were then extracted from mouse ears; from tissue; host or cells: ear skin of Balb/C mice (in vivo topical treatment)
T1 sequence (P06537 1-792): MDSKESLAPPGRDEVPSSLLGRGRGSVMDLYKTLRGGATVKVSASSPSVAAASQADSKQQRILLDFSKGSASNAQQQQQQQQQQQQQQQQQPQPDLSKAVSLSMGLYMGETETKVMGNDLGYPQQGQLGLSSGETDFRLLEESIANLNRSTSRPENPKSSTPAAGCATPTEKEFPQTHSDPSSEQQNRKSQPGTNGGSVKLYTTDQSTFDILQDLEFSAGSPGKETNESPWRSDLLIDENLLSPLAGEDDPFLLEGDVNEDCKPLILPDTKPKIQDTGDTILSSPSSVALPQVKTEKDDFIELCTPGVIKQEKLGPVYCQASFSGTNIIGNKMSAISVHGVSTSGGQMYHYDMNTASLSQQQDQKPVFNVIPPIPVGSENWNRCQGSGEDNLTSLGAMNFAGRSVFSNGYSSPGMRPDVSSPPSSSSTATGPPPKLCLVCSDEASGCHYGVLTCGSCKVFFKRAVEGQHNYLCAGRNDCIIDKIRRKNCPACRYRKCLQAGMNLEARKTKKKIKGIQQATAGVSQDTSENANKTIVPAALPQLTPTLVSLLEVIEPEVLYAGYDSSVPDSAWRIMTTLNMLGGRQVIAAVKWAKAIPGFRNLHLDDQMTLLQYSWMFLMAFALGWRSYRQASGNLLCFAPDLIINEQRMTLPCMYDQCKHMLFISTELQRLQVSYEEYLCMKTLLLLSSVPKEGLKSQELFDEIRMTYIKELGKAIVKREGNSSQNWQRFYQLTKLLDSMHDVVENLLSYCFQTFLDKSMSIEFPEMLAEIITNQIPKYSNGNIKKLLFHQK
Procedure: RNA transcripts were then extracted from mouse ears and the transcripts of 4 genes were analyzed by q-RT-PCR: • (i) the directly GR-transactivated gene of the mTOR inhibitor REDD1, • (ii) the GR-directly transrepressed gene of keratin 5 (K5) and • (iii) the GR-indirectly “tethered” transrepressed genes of interleukin-1β (IL-1β) and interleukin-6 (IL-6), both being activated in presence of 12-O-tetradecanoylphorbol-13-acetate (TPA). Results

[2] = test system: experimental models of dry eye and postoperative inflammation; details: in vivo, cited from earlier work
corneal epithelial cells = details: in vitro; cited from earlier work

GR functions induced (direct transactivation, direct transrepression, indirect tethered transrepression) [1]: induces all three GR functions
SMILES: Cc1ccc2c(NC[C@](O)(CC(C)(C)c3cc(F)cc4c3OCC4)C(F)(F)F)cccc2n1 [Mapracorat]
side effects in intraocular pressure and body weight ([2]; vs dexamethasone): reduced side effects | anti-inflammatory activity vs dexamethasone [2]: comparable | anti-inflammatory action in corneal epithelial cells challenged with osmotic stress (corneal epithelial cells): act as an anti-inflammatory agent
